What is called IC50 is the point on the concentration scale where inhibition reaches its midpoint.

One experiment concerns the target T1, 15-PGDH in A549 cells (Homo sapiens, UniProt P15428).
T1 construct: endogenous in cells; host or cells: A549
T1 sequence (P15428 1-266): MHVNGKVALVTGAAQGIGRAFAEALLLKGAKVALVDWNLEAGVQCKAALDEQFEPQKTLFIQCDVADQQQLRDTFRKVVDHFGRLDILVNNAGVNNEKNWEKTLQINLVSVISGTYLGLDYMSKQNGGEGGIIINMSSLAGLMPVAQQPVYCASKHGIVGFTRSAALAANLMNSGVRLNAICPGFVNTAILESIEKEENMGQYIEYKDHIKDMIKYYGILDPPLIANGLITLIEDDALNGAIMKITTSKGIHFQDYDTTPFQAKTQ
Kind of experiment: A549 cellular 15-PGDH assay (PGE2 accumulation, HTRF). It is filed as cell-based. Conditions: interleukin-stimulated, inhibitor 24 hrs, PGE2 by competitive HTRF, read-out: A549 Cell Assay IC50. In outline: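 IL-13-stimulated A549 lung carcinoma cells released PGE2, which was measured in supernatants by competitive HTRF with a Eu-cryptate anti-PGE2 antibody and labelled PGE2. Signal falls as PGE2 rises. IC50 values were derived from the binding data.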
(In general: TR-FRET usually uses a lanthanide donor and a delayed reading to cut background.)

Experiment [1] has as its target T2, human recombinant 15-PGDH (Homo sapiens, UniProt P15428).
T2 sequence (P15428 1-266): T1 sequence (P15428 1-266)
Kind of experiment: Recombinant 15-PGDH enzymatic inhibition assay (PGDH-Lumi, NADH signal). To be noted: recombinant 15-PGDH; 15 min pre-incubation, 60 min reaction with PGE2 and NAD+, NADH signal. The format is biochemical. In short, it runs like this:
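Recombinant 15-PGDH pre-incubated 15 min at room temperature with compound (22 concentrations, 2-fold dilutions) in 50 mM Tris pH 7.5, 0.01% Tween-20, […].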

`Cn1cc2cc(-c3ncc4cc(C5(O)CC(C)(C)C5)sc4n3)cnc2n1` [Compound C57, 3,3-dimethyl-1-(2-(2-methyl-2H-pyrazolo[3,4-b]pyridin-5-yl)thieno[2,3-d]pyrimidin-6-yl)cyclobutanol]: the IC50 was found to be 0.143 nM on 15-PGDH in A549 cells and 0.62 nM in experiment [1].
Turning to `CO[C@]1(C)C[C@@](O)(c2cc3ccc(-c4cnc5nn(C)cc5c4)nc3s2)C1` [Compound C59C, cis-3-methoxy-3-methyl-1-(6-(2-methyl-2H-pyrazolo[3,4-b]pyridin-5-yl)thieno[2,3-b]pyridin-2-yl)cyclobutanol], the half-inhibitory concentration (IC50) was found to be 0.113 nM on 15-PGDH in A549 cells and 0.584 nM in experiment [1].
For the compound `Cn1cc2cc(-c3ccc4cc(C5(O)CC5)sc4n3)cnc2n1` [Compound C60, 1-(6-(2-methyl-2H-pyrazolo[3,4-b]pyridin-5-yl)thieno[2,3-b]pyridin-2-yl)cyclopropanol], the IC50 on 15-PGDH in A549 cells is 26.7 nM; in experiment [1], 52.1 nM.
For `Cn1cc2cc(-c3ccc4cc(C5(O)CC6(CC6)C5)sc4n3)cnc2n1` [Compound C61, 5-(6-(2-methyl-2H-pyrazolo[3,4-b]pyridin-5-yl)thieno[2,3-b]pyridin-2-yl)spiro[2.3]hexan-5-o1], in that order: 0.0594 nM and 0.28 nM.
Take `Cn1cc2cc(-c3ccc4cc([C@]5(O)C[C@@](C)(C#N)C5)sc4n3)cnc2n1` [Compound C63C, cis-3-hydroxy-1-methyl-3-(6-(2-methyl-2H-pyrazolo[3,4-b]pyridin-5-yl)thieno[2,3-b]pyridin-2-yl)cyclobutanecarbonitrile]: the half-maximal inhibitory concentration (IC50) was 0.115 nM at 15-PGDH in A549 cells and 0.429 nM in experiment [1].
For `Cn1cc2cc(-c3ccc4cc([C@]5(O)C[C@](C)(C#N)C5)sc4n3)cnc2n1` [Compound C63T, trans-3-hydroxy-1-methyl-3-(6-(2-methyl-2H-pyrazolo[3,4-b]pyridin-5-yl)thieno[2,3-b]pyridin-2-yl)cyclobutanecarbonitrile], the IC50 on 15-PGDH in A549 cells came to 0.0863 nM; in experiment [1] it was 0.376 nM.
Turning to `Cn1cc2cc(-c3ccc4cc([C@]5(O)C[C@@H](OC(F)(F)F)C5)sc4n3)cnc2n1` [Compound C67C, cis-1-(6-(2-methyl-2H-pyrazolo[3,4-b]pyridin-5-yl)thieno[2,3-b]pyridin-2-yl)-3-(trifluoromethoxy)cyclobutanol], the IC50 on 15-PGDH in A549 cells came out at 0.0187 nM; in experiment [1], 0.534 nM.
For `Cn1cc2cc(-c3ccc4nc(C5(O)CC(C)(C)C5)sc4n3)cnc2n1` [Compound C68, 3,3-dimethyl-1-(5-(2-methyl-2H-pyrazolo[3,4-b]pyridin-5-yl)[1,3]thiazolo[5,4-b]pyridin-2-yl)cyclobutanol], the IC50 was found to be 0.361 nM on 15-PGDH in A549 cells and 0.58 nM in experiment [1].
As for `CO[C@H]1C[C@](O)(c2sc3nc(-c4cnc5nn(C)cc5c4)ccc3c2Cl)C1` [Compound C69C, cis-1-(3-chloro-6-(2-methyl-2H-pyrazolo[3,4-b]pyridin-5-yl)thieno[2,3-b]pyridin-2-yl)-3-methoxycyclobutanol], the IC50 at 15-PGDH in A549 cells was determined as 0.722 nM; in experiment [1] it was 1.16 nM.
For `Cn1cc2cc(-c3ncc4cc([C@]5(O)C[C@@H](C(F)(F)F)C5)sc4n3)cnc2n1` [Compound C71C, cis-1-(2-(2-methyl-2H-pyrazolo[3,4-b]pyridin-5-yl)thieno[2,3-d]pyrimidin-6-yl)-3-(trifluoromethyl)cyclobutanol], the values for the IC50 (at 15-PGDH in A549 cells; in experiment [1]) were 0.142 nM and 0.54 nM, respectively.
Taken in the same sequence, the figures for `Cn1cc2cc(-c3ccc4c(Cl)c(C5(O)CC(C)(C)C5)sc4n3)cnc2n1` [Compound C73, 1-(3-chloro-6-(2-methyl-2H-pyrazolo[3,4-b]pyridin-5-yl)thieno[2,3-b]pyridin-2-yl)-3,3-dimethylcyclobutanol] were 1.26 nM and 2.44 nM.
With `Cn1cc2cc(-c3ccc4nc([C@]5(O)C[C@@H](C(F)(F)F)C5)sc4n3)cnc2n1` [Compound C74C, cis-1-(5-(2-methyl-2H-pyrazolo[3,4-b]pyridin-5-yl)[1,3]thiazolo[5,4-b]pyridin-2-yl)-3-(trifluoromethyl)cyclobutanol], the figures for the half-inhibitory concentration (IC50) (on 15-PGDH in A549 cells; in experiment [1]) were 0.192 nM and 0.458 nM, respectively.
With `Cn1cc2cc(-c3ccc4c(Cl)c([C@]5(O)C[C@@H](C(F)(F)F)C5)sc4n3)cnc2n1` [Compound C75C, cis-1-(3-chloro-6-(2-methyl-2H-pyrazolo[3,4-b]pyridin-5-yl)thieno[2,3-b]pyridin-2-yl)-3-(trifluoromethyl)cyclobutanol], the IC50 at 15-PGDH in A549 cells turned out to be 1.07 nM; in experiment [1], 0.707 nM.
For `Cn1nnc2cc(-c3ccc4cc([C@]5(O)C[C@@H](C(F)F)C5)sc4n3)cnc21` [Compound C76C, cis-3-(difluoromethyl)-1-(6-(3-methyl-3H-[1,2,3]triazolo[4,5-b]pyridin-6-yl)thieno[2,3-b]pyridin-2-yl)cyclobutanol], in that order: 1.03 nM and 0.832 nM.
For `Cc1c(C2(O)CC(F)(F)C2)sc2nc(-c3cnc4nn(C)cc4c3)ccc12` [Compound C77, 3,3-difluoro-1-(3-methyl-6-(2-methyl-2H-pyrazolo[3,4-b]pyridin-5-yl)thieno[2,3-b]pyridin-2-yl)cyclobutanol], in that order: 9.15 nM and 7.69 nM.
On to `Cc1c2ccc(-c3cnc4nn(C)cc4c3)nc2sc1[C@]1(O)C[C@@H](C(F)(F)F)C1` [Compound C78C, cis-1-(3-methyl-6-(2-methyl-2H-pyrazolo[3,4-b]pyridin-5-yl)thieno[2,3-b]pyridin-2-yl)-3-(trifluoromethyl)cyclobutanol], for which the IC50 was determined as 2.42 nM on 15-PGDH in A549 cells and 1.03 nM in experiment [1].
Consider `Cn1nnc2cc(-c3ccc4cc([C@]5(O)C[C@@H](C(F)(F)F)C5)sc4n3)cnc21` [Compound C79C, cis-1-(6-(3-methyl-3H-[1,2,3]triazolo[4,5-b]pyridin-6-yl)thieno[2,3-b]pyridin-2-yl)-3-(trifluoromethyl)cyclobutanol], for which the IC50 on 15-PGDH in A549 cells was found to be 0.832 nM; in experiment [1], 0.585 nM.
Regarding `Cn1cc2cc(-c3ncc4cc([C@]5(O)C[C@@H](C(F)F)C5)sc4n3)cnc2n1` [Compound C80C, cis-3-(difluoromethyl)-1-(2-(2-methyl-2H-pyrazolo[3,4-b]pyridin-5-yl)thieno[2,3-d]pyrimidin-6-yl)cyclobutanol], the IC50 at 15-PGDH in A549 cells is 1.26 nM; in experiment [1] it was 0.771 nM.
For `Cn1cc2cc(-c3ccc4nc([C@]5(O)C[C@@H](C(F)F)C5)sc4n3)cnc2n1` [Compound C81C, cis-3-(difluoromethyl)-1-(5-(2-methyl-2H-pyrazolo[3,4-b]pyridin-5-yl)[1,3]thiazolo[5,4-b]pyridin-2-yl)cyclobutanol], the results for the 50% inhibitory concentration (IC50) (at 15-PGDH in A549 cells; in experiment [1]) were 2.69 nM and 0.641 nM, respectively.
Taken in the same sequence, the figures for `Cn1nnc2cc(-c3ccc4nc([C@]5(O)C[C@@H](C(F)F)C5)sc4n3)cnc21` [Compound C82C, cis-3-(difluoromethyl)-1-(5-(3-methyl-3H-[1,2,3]triazolo[4,5-b]pyridin-6-yl)[1,3]thiazolo[5,4-b]pyridin-2-yl)cyclobutanol] were 34.2 nM and 9.49 nM.
In the case of `Cc1c2ccc(-c3cnc4nn(C)cc4c3)nc2sc1[C@]1(O)C[C@@H](C(F)F)C1` [Compound C83C, cis-3-(difluoromethyl)-1-(3-methyl-6-(2-methyl-2H-pyrazolo[3,4-b]pyridin-5-yl)thieno[2,3-b]pyridin-2-yl)cyclobutanol], the IC50 on 15-PGDH in A549 cells turned out to be 12.3 nM; in experiment [1], 5.33 nM.
For the compound `Cn1cc2cc(-c3ccc4sc([C@]5(O)C[C@@H](C(F)F)C5)cc4n3)cnc2n1` [Compound C84C, cis-3-(difluoromethyl)-1-(5-(2-methyl-2H-pyrazolo[3,4-b]pyridin-5-y1)thieno[3,2-b]pyridin-2-yl)cyclobutanol], the results for the concentration for half-maximal inhibition (IC50) (at 15-PGDH in A549 cells; in experiment [1]) were 13.2 nM and 7.79 nM, respectively.
`Cn1nnc2cc(-c3ncc4cc([C@]5(O)C[C@@H](C(F)F)C5)sc4n3)cnc21` [Compound C85C, cis-3-(difluoromethyl)-1-(2-(3-methyl-3H-[1,2,3]triazolo[4,5-b]pyridin-6-yl)thieno[2,3-d]pyrimidin-6-yl)cyclobutanol]: the figures for the half-inhibitory concentration (IC50) (at 15-PGDH in A549 cells; in experiment [1]) were 7.6 nM and 2.89 nM, respectively.
Taken in the same sequence, the figures for `Cn1cc2cc(-c3ccc4sc([C@]5(O)C[C@@H](C(F)(F)F)C5)cc4n3)cnc2n1` [Compound C86C, cis-1-(5-(2-methyl-2H-pyrazolo[3,4-b]pyridin-5-yl)thieno[3,2-b]pyridin-2-yl)-3-(trifluoromethyl)cyclobutanol] were 4.12 nM and 1.52 nM.
In the case of `CCn1cc2cc(-c3ccc4cc([C@]5(O)C[C@@H](C(F)F)C5)sc4n3)cnc2n1` [Compound C87C, cis-3-(difluoromethyl)-1-(6-(2-ethyl-2H-pyrazolo[3,4-b]pyridin-5-yl)thieno[2,3-b]pyridin-2-yl)cyclobutanol], the half-inhibitory concentration (IC50) on 15-PGDH in A549 cells came out at 0.842 nM; in experiment [1] it was 0.61 nM.
Turning to `Cn1cc2cc(-c3ncc4sc([C@]5(O)C[C@@H](C(F)F)C5)cc4n3)cnc2n1` [Compound C89C, cis-3-(difluoromethyl)-1-(2-(2-methyl-2H-pyrazolo[3,4-b]pyridin-5-yl)thieno[3,2-d]pyrimidin-6-yl)cyclobutanol], the half-maximal inhibitory concentration (IC50) worked out at 49.1 nM at 15-PGDH in A549 cells and 33.8 nM in experiment [1].

The values above are taken from patent US20240409557A1, “5,6-FUSED AND 6,6-FUSED BICYCLIC ALCOHOLS AND ETHERS AND COMPOSITIONS FOR USE AS 15-PROSTAGLANDIN DEHYDROGENASE MODULATORS” (AMGEN INC., priority 2023, published 2024).
